Results taken from BindingDB's records for PubMed 12232544 (Emory University, 2002).
Where “and” joins values, the source holds several entries; their conditions need not be identical. Equal values may be shown once. Where a name gives a salt, the structure may show the parent alone.

Tests used:
Histamine H1 receptor = Histamine H1 receptor (Cavia porcellus, UniProt P31389)
[1] = biological target: T1, 5-hydroxytryptamine receptor 2C (Sus scrofa, UniProt K7GSR7)
T1 sequence (K7GSR7 whole entry): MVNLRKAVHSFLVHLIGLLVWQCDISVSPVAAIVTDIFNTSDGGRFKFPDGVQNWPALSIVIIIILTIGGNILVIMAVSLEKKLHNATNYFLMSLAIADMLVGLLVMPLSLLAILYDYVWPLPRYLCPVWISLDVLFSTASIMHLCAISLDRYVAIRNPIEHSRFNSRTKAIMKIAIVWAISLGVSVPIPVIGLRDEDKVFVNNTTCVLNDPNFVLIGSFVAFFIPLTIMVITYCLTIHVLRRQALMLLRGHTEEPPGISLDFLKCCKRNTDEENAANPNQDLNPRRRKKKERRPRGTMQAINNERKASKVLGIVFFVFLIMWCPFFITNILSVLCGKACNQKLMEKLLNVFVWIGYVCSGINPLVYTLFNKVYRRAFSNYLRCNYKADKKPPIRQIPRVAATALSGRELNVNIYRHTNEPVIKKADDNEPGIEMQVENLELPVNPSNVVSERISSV

[2] = biological target: T2, Alpha-1A adrenergic receptor (Homo sapiens, UniProt P35348)
T2 sequence (P35348 whole entry): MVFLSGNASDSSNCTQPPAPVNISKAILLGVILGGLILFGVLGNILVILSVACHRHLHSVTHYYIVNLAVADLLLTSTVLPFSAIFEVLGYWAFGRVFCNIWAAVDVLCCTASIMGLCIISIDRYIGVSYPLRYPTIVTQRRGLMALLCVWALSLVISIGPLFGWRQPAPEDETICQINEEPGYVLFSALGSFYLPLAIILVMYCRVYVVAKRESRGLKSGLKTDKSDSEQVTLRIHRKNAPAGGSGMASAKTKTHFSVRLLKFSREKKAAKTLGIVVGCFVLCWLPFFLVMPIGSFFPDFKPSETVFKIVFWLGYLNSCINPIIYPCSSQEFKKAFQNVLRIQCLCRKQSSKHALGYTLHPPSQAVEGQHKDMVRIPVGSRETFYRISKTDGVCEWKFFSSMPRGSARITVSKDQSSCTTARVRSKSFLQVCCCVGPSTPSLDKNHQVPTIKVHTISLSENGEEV

Histamine H1 receptor, sequence (P31389 whole entry): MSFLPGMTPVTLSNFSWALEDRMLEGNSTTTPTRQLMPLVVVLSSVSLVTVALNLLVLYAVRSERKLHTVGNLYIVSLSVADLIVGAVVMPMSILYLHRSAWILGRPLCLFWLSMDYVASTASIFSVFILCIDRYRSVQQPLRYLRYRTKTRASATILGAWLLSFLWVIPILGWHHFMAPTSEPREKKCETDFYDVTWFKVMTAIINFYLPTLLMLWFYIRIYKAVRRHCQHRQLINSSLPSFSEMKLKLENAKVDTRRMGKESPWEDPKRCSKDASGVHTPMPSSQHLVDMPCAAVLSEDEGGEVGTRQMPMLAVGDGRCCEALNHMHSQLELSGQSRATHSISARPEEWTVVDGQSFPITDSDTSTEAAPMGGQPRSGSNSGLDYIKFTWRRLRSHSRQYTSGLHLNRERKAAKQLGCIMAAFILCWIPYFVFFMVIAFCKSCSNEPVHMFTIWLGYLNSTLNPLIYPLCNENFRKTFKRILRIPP

| Structure (SMILES) | Ki (Histamine H1 receptor) | Ki [1] | Ki [2] |
| --- | --- | --- | --- |
| COCCCC/C(=N\OCCN)c1ccc(C(F)(F)F)cc1 [(1E)-5-methoxy-1-[4-(trifluoromethyl)phenyl]pentan-1-one O-(2-aminoethyl)oxime] | > 10000 nM | 5790 nM | – |
| CN(C)CCCC1(c2ccc(F)cc2)OCc2cc(C#N)ccc21 (stereo not drawn) [CITALOPRAM HYDROBROMIDE] | 283 nM and 1970 nM | 2050 nM and 2530 nM | – |
| CNCC[C@@H](Oc1ccc(C(F)(F)F)cc1)c1ccccc1 [Fluoxetine-R-(-)] | 812 nM | – | – |
| Fc1ccc([C@@H]2CCNC[C@H]2COc2ccc3c(c2)OCO3)cc1 [PAROXETINE] | > 10000 nM | 9030 nM | – |
| CNCC[C@@H](Oc1ccc(C(F)(F)F)cc1)c1ccccc1 [Prozac] | 1550 nM | – | – |
| CN(C)CCC[C@]1(c2ccc(F)cc2)OCc2cc(C#N)ccc21 [R-citalopram] | 181 nM | 1800 nM | – |
| CN[C@@H]1CC[C@@H](c2ccc(Cl)c(Cl)c2)c2ccccc21 [[4-(3,4-Dichloro-phenyl)-1,2,3,4-tetrahydro-naphthalen-1-yl]-methyl-amine] | 6580 nM | 2300 nM | 188 nM |
